Experimental data from paper PMC5551175, “Trypanosoma brucei Inhibition by Essential Oils from Medicinal and Aromatic Plants Traditionally Used in Cameroon (Azadirachta indica, Aframomum melegueta, Aframomum daniellii, Clausena anisata, Dichrostachys cinerea and Echinops giganteus)” (International Journal of Environmental Research and Public …, 2017).
Where two headings read alike, the source gives them in different places.

Tests used:
[1] = tested on: T. brucei TC221 bloodstream forms; assay: T. brucei growth inhibition assay (resazurin); type: cell-based; settings: Trypanosoma brucei, 72 h, 48 h + 24 h with resazurine
Protocol: (§1) The cell culture conditions and the growth inhibition assay on T. brucei and Balb/3T3 cells were performed as described before. T. brucei TC221 bloodstream forms and mouse embryonic fibroblast Balb/3T3 cells (ATCC no CCL-163) were cultivated in vented plastic flasks at 37 °C with 5% CO2. For T. brucei, the growth medium was HMI-9 [45] supplemented with 10% (v/v) fetal bovine serum (Gibco, Waltham, MA, USA), whereas the Balb/3T3 cells were grown in Dulbecco’s Modified Eagle’s Medium (Sigma-Aldrich) supplemented with 10% (v/v) heat-inactivated fetal bovine serum, glutamine (0.584 g/L), and 10 mL/L 100× penicillin-streptomycin (Gibco). The essential oils or pure compounds identified from these oils were dissolved in dimethyl sulfoxide (DMSO) and serially diluted with growth medium in white 96-well microtiter plates. 20,000 bloodstream forms of T. brucei or Balb/3T3 cells were added to each well in a final volume of 200 μL. In the case of mammalian cells, we also tested 2000 cells/well with similar results. […] Cell viability was verified by a drug-free control for each compound. The plates were incubated for 48 h in the CO2 incubator; then 20 μL of 0.5 mM resazurine (Sigma Aldrich) was added to each well, and the plates were incubated for an additional 24 h before the fluorescence was measured with an Infinite M200 microplate reader (Tecan group, Ltd., Männedorf, Switzerland) equipped with 540 and 590 nm excitation and emission filters. The half maximal inhibitory concentration (IC50) values were calculated on a log inhibitor versus the response curves by non-linear regression using the GraphPad prism 5.04 software (GraphPad Software, Inc., La Jolla, CA, USA).

Balb/3T3 cells = assay: Mammalian cell growth inhibition assay (resazurin); type: cell-based, mouse; settings: for CC50: BALB/3T3, 72 h, mouse embryonic fibroblast cells, 48 h + 24 h with resazurine, read-out: IC50 Balb/3T3; for Selectivity Index (SI): Balb/3T3 versus T. b. brucei TC221
Protocol: as §1

[2] = read-out: IC50 T. b. brucei (TC221)
[3] = µM value in parentheses, read-out: IC50 T. b. brucei (TC221), value in brackets (converted)

SMILES | IC50 [1, 2] [µg/mL] | CC50 (Balb/3T3 cells) [µg/mL] | Selectivity Index (SI) (Balb/3T3 cells) | IC50 [1, 3] [µM]
CC1=CCC(O)(C(C)C)CC1 (stereo not shown) [Terpinen-4-ol] | > 100 |  |  | 
C=C1CCC2(C(C)C)CC12 (stereo not shown) [Sabinene] | 5.96 ± 1.3 | > 100 | >16.7 | 43.8
C=C1CCC2CC1C2(C)C (stereo not drawn) [β-Pinene] | 11.4 ± 2.6 | > 100 | >8.77 | 83.7
Cc1ccc(C(=O)Nc2ccc(S(=O)(=O)O)c3cc(S(=O)(=O)O)cc(S(=O)(=O)O)c23)cc1NC(=O)c1cccc(NC(=O)Nc2cccc(C(=O)Nc3cc(C(=O)Nc4ccc(S(=O)(=O)O)c5cc(S(=O)(=O)O)cc(S(=O)(=O)O)c45)ccc3C)c2)c1 [Suramin, reference compound] | 0.0286 ± 0.0008 |  |  | 0.022
C=C1CC/C=C(\C)CC[C@@H]2[C@@H]1CC2(C)C [(E)-Caryophyllene] | 8.25 ± 1.3 | > 100 | >12.1 | 40.4
CC12CCC(CC1)C(C)(C)O2 [1,8-Cineole] | > 100 |  |  | 
